Values after ≈ are worked out from the molar mass of the structure shown.

For this series the following is noted: buffer; pH 7.4; 200.0 µM.
Regarding `Cc1ccc(Cl)cc1NC(=O)NCCN1CCCCC1`, the solubility (kinetic) (as a rule, the concentration staying in solution when a stock, usually in DMSO, is diluted into the medium) was more than 44.4 µg/mL.

For the molecule `COc1ccc(C2=NOC(CNC(=S)N3CCOCC3)C2)cc1` (configuration not stated), the solubility (kinetic) amounted to 12.8 µg/mL (≈ 38.2 µM).

In turn, `O=C(O)c1ccccc1C(=O)NC1CCCCNC1=O` (configuration not stated) displayed a solubility (kinetic) of more than 41.4 µg/mL.

In turn, `Cc1ccccc1Nc1nc(N)nc(COC(=O)c2c(C)noc2C)n1` showed a kinetic solubility of more than 53.2 µg/mL.

Molecule `O=S(=O)(c1cccc(C(F)(F)F)c1)N1CCN(c2cnccn2)CC1` displayed a kinetic solubility of 25.1 µg/mL (≈ 67.4 µM).

As to `COc1ccc(/C=N/NC(=O)c2ccccc2O)cc1COc1ccccn1`, the solubility (kinetic) is more than 56.6 µg/mL.

Consider `COc1cc(C=O)ccc1OCC(=O)Nc1ccc2c(c1)OCO2`, for which the solubility (kinetic) was found to be 7.6 µg/mL (≈ 23.1 µM).

The molecule `C[C@H](NC(=O)c1ccccc1)C(=O)OCC(=O)Nc1sccc1C(N)=O` had a solubility (kinetic) of more than 56.3 µg/mL.

`CC(=O)NCCC(=O)Nc1nc2c(ccc3ccccc32)s1` gave a solubility (kinetic) of 1.7 µg/mL (≈ 5.42 µM).

Consider `CCCn1c(C)cc(C=O)c1C`, for which the kinetic solubility was determined as 16.3 µg/mL (≈ 98.6 µM).

Consider `O=C(CN1CCOCC1)Nc1ccc(NC(=O)c2ccccc2F)cc1`, for which the solubility (kinetic) was more than 53.6 µg/mL.

The molecule `COC(=O)c1ccc(-n2c(C)cc(C(=O)COC(=O)C3=COCCO3)c2C)cc1` displayed a kinetic solubility of 3.7 µg/mL (≈ 9.26 µM).

Regarding `CSc1ccc(CN(C)C(=O)c2cc(Cl)c3c(c2)OCCO3)cc1`, the kinetic solubility is more than 54.6 µg/mL.

In turn, `COc1cc([N+](=O)[O-])cc2sc(NC(=O)C3CC3)nc12` yielded a kinetic solubility of 0.6 µg/mL (≈ 2.05 µM).

`O=c1cc(Cl)[nH]c(=O)n1Cc1ccccc1` displayed a solubility (kinetic) of more than 35.5 µg/mL.

In turn, `CCN1CCN(C(=S)NC(=O)/C=C/c2cccs2)CC1` had a kinetic solubility of 44.8 µg/mL (≈ 145 µM).

Consider `Cc1ccc(C2SCC(=O)N2c2ccccc2)cc1` (configuration not stated), for which the kinetic solubility was more than 40.4 µg/mL.

`CC(=O)c1c(C)nc(-c2ccccc2)nc1NC(=O)Cc1ccccc1` registered a solubility (kinetic) of 11 µg/mL (≈ 31.8 µM).

On to `CCOC(=O)C1=C(CC)Nc2ccccc2N/C1=N\S(=O)(=O)c1cccc(C(C)=O)c1`, for which the kinetic solubility was more than 66.2 µg/mL.

As for `CCOc1ccc(S(=O)(=O)Nc2ccc(C(=O)N3CCCC3)cc2)cc1`, the solubility (kinetic) came out at 53.3 µg/mL (≈ 142 µM).

As for `CC(C)CCNC(=O)COc1cccc2c1OC(C)(C)C2`, the kinetic solubility was found to be 43.4 µg/mL (≈ 149 µM).

`CS(=O)(=O)Nc1cccc(-c2cn3c(n2)SCC3)c1` had a kinetic solubility of 40 µg/mL (≈ 135 µM).

The molecule `Fc1ccccc1Nc1nc2ccccc2o1` gave a kinetic solubility of 16.9 µg/mL (≈ 74 µM).

As to `CC(C)CC(NC(N)=O)C(=O)NCc1ccc(Cl)cc1` (configuration not stated), the kinetic solubility came out at 35.3 µg/mL (≈ 119 µM).

`Cc1ccc(CNS(=O)(=O)c2c(C)n(C)c(=O)n(C)c2=O)cc1` returned a solubility (kinetic) of more than 50.6 µg/mL.

`CC(=O)c1ccccc1NC(=O)CSc1n[nH]c(=O)n1C1CC1` returned a solubility (kinetic) of more than 49.9 µg/mL.

In turn, `CCN(C(=O)CSc1ncccn1)C1CCS(=O)(=O)C1` (configuration not stated) displayed a solubility (kinetic) of more than 47.3 µg/mL.

`O=C(Cc1ncc(C(F)(F)F)cc1Cl)NC1CC1` had a solubility (kinetic) of more than 41.8 µg/mL.

`COc1ccccc1NC(=O)CCSc1nc(C)cs1`: the kinetic solubility was more than 46.3 µg/mL.

`Cc1cc(F)c(F)c(C(=O)N2C(C)CCCC2C)c1Cl` (configuration not stated) returned a solubility (kinetic) of 14.5 µg/mL (≈ 48.1 µM).

Molecule `CCN1C(=O)c2cccc3c(S(=O)(=O)N(C(C)=O)c4ccc(OC(C)=O)cc4)ccc1c23` showed a solubility (kinetic) of 4.3 µg/mL (≈ 9.5 µM).

In the case of `c1ccc2c(c1)Sc1ccccc1N2CC1CN2CCC1CC2` (configuration not stated), the kinetic solubility is more than 48.4 µg/mL.

In the case of `CC(c1ccccc1)N1CC(C(=O)Nc2nccs2)CC1=O` (configuration not stated), the kinetic solubility was more than 47.3 µg/mL.

In the case of `Cc1nn(C)cc1S(=O)(=O)Nc1ncccn1`, the kinetic solubility was more than 38 µg/mL.

The molecule `CCOCCn1c(N2CCCC2)nc2c1c(=O)n(C)c(=O)n2C` registered a kinetic solubility of more than 48.2 µg/mL.

In turn, `COc1cc(NC(=O)C2CC3CCC2C3)c(OC)cc1Cl` (configuration not stated) came in with a solubility (kinetic) of 3.5 µg/mL (≈ 11.3 µM).

Molecule `CN(Cc1nc(CCc2ccccc2)no1)Cc1cccs1` showed a solubility (kinetic) of 18.4 µg/mL (≈ 58.7 µM).

In turn, `CCN(Cc1ccccc1)C(=O)COC(=O)[C@@H]1CCCN1C(=O)c1cccs1` came in with a solubility (kinetic) of more than 60.1 µg/mL.

`CC(=O)COC(=O)c1ccc2noc(-c3ccccc3)c2c1` displayed a kinetic solubility of 8 µg/mL (≈ 27.1 µM).

On to `Cc1ccc(OP(N)(=O)Oc2ccc(C)cc2)cc1`, for which the kinetic solubility was found to be 29.6 µg/mL (≈ 107 µM).

In turn, `Cc1ccc(NC(=O)CCCc2nc3ccccc3s2)c(O)c1` yielded a solubility (kinetic) of more than 49 µg/mL.

Take `COc1ccc(C(=O)CC(=O)C(=O)Nc2ccccc2OC)cc1`: the solubility (kinetic) worked out at 16.2 µg/mL (≈ 49.5 µM).

In the case of `CC(=O)Nc1ccc(NS(=O)(=O)c2cccc3nonc23)cc1`, the solubility (kinetic) is more than 49.8 µg/mL.

For `O=C(Nc1cccc(N2C(=O)C=CC2=O)c1)c1cccs1`, the solubility (kinetic) is more than 44.7 µg/mL.

On to `COC(=O)c1ccc(C2NC(=O)c3ccccc3O2)cc1` (configuration not stated), for which the kinetic solubility was found to be 5.2 µg/mL (≈ 18.4 µM).

In the case of `CC(=O)c1c(C)[nH]c(C(=O)CN2CCN(S(=O)(=O)c3ccccc3F)CC2)c1C`, the solubility (kinetic) was found to be 6.4 µg/mL (≈ 15.2 µM).

In turn, `CCCCOc1ncnc2c1[nH]c1ccc(C)cc12` showed a kinetic solubility of 0.6 µg/mL (≈ 2.35 µM).

`CCc1ccc(OCC(=O)O/N=C(\N)c2ccncc2)cc1` returned a kinetic solubility of 7.1 µg/mL (≈ 23.7 µM).

For `O=C(COC(=O)c1cccc(Cl)c1)Nc1ccc2[nH]c(=O)[nH]c2c1`, the solubility (kinetic) worked out at 0.8 µg/mL (≈ 2.31 µM).

Take `COC(=O)CCNC(=O)c1ccc2[nH]c(C)c(C)c2c1`: the solubility (kinetic) was more than 41.1 µg/mL.

On to `Cc1ccccc1C(=O)NCC(=O)N1CCN(C/C=C/c2ccccc2)CC1`, for which the solubility (kinetic) was more than 56.6 µg/mL.

The molecule `COC(=O)c1c(C(=O)OC)c2n(c1C)CCS2` gave a solubility (kinetic) of more than 38.3 µg/mL.

The record behind these values is PubChem BioAssay AID1996.
